Source: patent publication US6689362B1, “Method for treating T-lineage leukemias and lymphomas using a CD7-specific monoclonal antibody (TXU-7) linked to the pokeweed antiviral protein (PAP)” (priority 1997, dated 2004)
Values joined by “and” are separate entries in the source; they are usually repeats but may differ in a detail not shown here. Equal values may be shown once.

Test system: clinical HIV-1 isolates (AT-101, AT-328, AT-332)
Assay: Hu-PBL-SCID mouse model of human AIDS (HIV-PCR and HIV-culture)
Format: in vivo
[1] = 1 mg/ml in water, average 200 mg/kg/day

Compound: Cc1cn([C@H]2C[C@H](N=[N+]=[N-])[C@@H](CO)O2)c(=O)[nH]c1=O [AZT, zidovudine]
- Cx+ [1]: 4/8
- PCR+ [1]: 4/10
- PCR+ Cx+ [1]: 4 and 4/8
- PCR+ CxND [1]: 0/2
- PCR+ Cx− [1]: 3 and 4/8
- PCR− Cx− [1]: 0/8
- mice tested HIV-1 negative [1]: 3 of 10
- gp120 on CD7 cells from peritoneal cavities (flow cytometry) (treated Hu-PBL-SCID mice): presence of gp120 on CD7 cells
